The source of these data is ChEMBL document CHEMBL3639041, “Respiratory formulations and compounds for use therein” (2015).

pIC50: −log10 of the molar value.

For assay [1], the target named is T1, Mitogen-activated protein kinase 12 (Homo sapiens, UniProt P53778).
T1 sequence (P53778 whole entry): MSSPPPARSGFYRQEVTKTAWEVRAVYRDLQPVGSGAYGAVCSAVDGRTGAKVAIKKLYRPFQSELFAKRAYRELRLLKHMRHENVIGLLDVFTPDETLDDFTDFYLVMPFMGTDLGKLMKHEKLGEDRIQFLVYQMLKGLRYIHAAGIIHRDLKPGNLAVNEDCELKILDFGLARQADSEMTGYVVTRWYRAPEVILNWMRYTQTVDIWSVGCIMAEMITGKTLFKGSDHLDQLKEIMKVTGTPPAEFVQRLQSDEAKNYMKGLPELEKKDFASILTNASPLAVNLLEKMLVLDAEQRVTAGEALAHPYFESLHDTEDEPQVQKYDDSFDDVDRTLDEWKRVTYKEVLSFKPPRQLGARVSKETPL
The assay is described as follows: (§1) Fluorescence Resonance Energy Transfer (FRET) Assay: The enzyme inhibitory activity of test compounds was determined by fluorescence resonance energy transfer (FRET) using synthetic peptides labelled with both donor and acceptor fluorophores (Z-LYTE, Invitrogen). Recombinant, phosphorylated p38 MAPK (MAPK12:Millipore) was diluted in HEPES buffer, mixed with compound at the desired final concentrations and incubated for 2 hr at RT. The FRET peptide (2 uM) and ATP (100 uM) were next added to the enzyme/compound mixture and incubated for 1 hr. Development reagent (protease) was added for 1 hr prior to detection in a fluorescence microplate reader. The site-specific protease only cleaves non-phosphorylated peptide and eliminates the FRET signal. Phosphorylation levels of each reaction were calculated using the ratio of coumarin emission (donor) over fluorescein emission (acceptor) with […].

In assay [2] the target is Proto-oncogene tyrosine-protein kinase Src (Homo sapiens, UniProt P12931). The assay is described as §1.
In assay [3] the target is Tyrosine-protein kinase HCK (Homo sapiens, UniProt P08631). The assay is described as §1.

In general, pIC50 refers to the IC50 on a negative log10 scale, so that one unit is a factor of ten. As to `Cc1ccc(-n2nc(C(C)C)cc2NC(=O)Nc2ccc(Oc3ccnc4[nH]c(=O)cnc34)c3ccccc23)cc1`, the pIC50 in assay [1] is 7.41; in assay [2], 8.10; in assay [3] it was 8.40.

Turning to `CC(C)(C)c1cc(NC(=O)Nc2ccc(Oc3ccnc4[nH]c(=O)cnc34)c3ccccc23)n(-c2ccc(Cl)c(Cl)c2)n1`, the pIC50 is 7.05 in assay [1] and 8.22 in assay [2].

Turning to `Cc1ccc(-n2nc(C(C)(C)C)cc2NC(=O)Nc2ccc(Oc3ccnc4[nH]c(=O)cnc34)c3ccccc23)s1`, the values for the pIC50 in assay [1] and in assay [3] were 7.39 and 8.52, respectively.
